Data from ChEMBL document CHEMBL1153375, “Synthesis and antibacterial activities of N-glycosylated derivatives of tyrocidine A, a macrocyclic peptide antibiotic” (2009).
≈ marks a conversion by molar mass, not a printed value. Calls of active or inactive are those of the source. The rule behind the calls is not given here.

Legend:
Bacillus subtilis [1] = assay: Antibacterial activity against Bacillus subtilis CMCC-B 63501 by twofold serial dilution method; type: functional
Bacillus subtilis [2] = assay: Antibacterial activity against Bacillus subtilis CMCC-B 63501 up to 500 ug/ml by twofold serial dilution method; type: functional, organism-based
[3] = Bacillus subtilis, read-out: MIC

MIC (Bacillus subtilis [1]; [3]) [µg/mL] | Compound | Activity (Bacillus subtilis [2]) | also measured
31 (≈ 24.4 µM) | CC(C)C[C@@H]1NC(=O)[C@H](CCCN)NC(=O)[C@H](C(C)C)NC(=O)[C@H](Cc2ccc(O)cc2)NC(=O)[C@H](CCC(N)=O)NC(=O)[C@H](CC(N)=O)NC(=O)[C@@H](Cc2ccccc2)NC(=O)[C@H](Cc2ccccc2)NC(=O)[C@@H]2CCCN2C(=O)[C@@H](Cc2ccccc2)NC1=O (stereo in doubt; 1) [TYROCIDINE A] | – | –
62 (≈ 37.8 µM) | CC(C)C[C@@H]1NC(=O)[C@H](CCCN)NC(=O)[C@H](C(C)C)NC(=O)[C@H](Cc2ccc(O)cc2)NC(=O)[C@H](CCC(N)=O)NC(=O)[C@H](CC(=O)NCCO[C@@H]2O[C@H](CO)[C@@H](O[C@@H]3O[C@H](CO)C(O)[C@H](O)[C@H]3O)[C@H](O)[C@H]2O)NC(=O)C(Cc2ccccc2)NC(=O)[C@H](Cc2ccccc2)NC(=O)[C@@H]2CCCN2C(=O)C(Cc2ccccc2)NC1=O (single isomer, unassigned) | – | –
– | CC(=O)N[C@@H]1[C@@H](O)[C@H](O)[C@@H](CO)O[C@H]1NC(=O)C[C@@H]1NC(=O)C(Cc2ccccc2)NC(=O)[C@H](Cc2ccccc2)NC(=O)[C@@H]2CCCN2C(=O)C(Cc2ccccc2)NC(=O)[C@H](CC(C)C)NC(=O)[C@H](CCCN)NC(=O)[C@H](C(C)C)NC(=O)[C@H](Cc2ccc(O)cc2)NC(=O)[C@H](CCC(N)=O)NC1=O (single isomer, unassigned) | inactive | –
– | CC(C)C[C@@H]1NC(=O)[C@H](CCCN)NC(=O)[C@H](C(C)C)NC(=O)[C@H](Cc2ccc(O)cc2)NC(=O)[C@H](CCC(N)=O)NC(=O)[C@H](CC(N)=O)NC(=O)[C@@H](Cc2ccccc2)NC(=O)[C@H](Cc2ccccc2)NC(=O)[C@@H]2CCCN2C(=O)[C@@H](Cc2ccccc2)NC1=O (stereo in doubt) [TYROCIDINE A] | – | MIC (Bacillus subtilis [1]): 20 µg/mL (≈ 15.7 µM)
– | CC(=O)N[C@@H]1[C@@H](O)[C@H](O[C@@H]2O[C@H](CO)[C@@H](O)[C@H](O)[C@H]2NC(C)=O)[C@@H](CO)O[C@H]1NC(=O)C[C@@H]1NC(=O)C(Cc2ccccc2)NC(=O)[C@H](Cc2ccccc2)NC(=O)[C@@H]2CCCN2C(=O)C(Cc2ccccc2)NC(=O)[C@H](CC(C)C)NC(=O)[C@H](CCCN)NC(=O)[C@H](C(C)C)NC(=O)[C@H](Cc2ccc(O)cc2)NC(=O)[C@H](CCC(N)=O)NC1=O (single isomer, unassigned) | inactive | –
